Data reported in patent publication US11197914B2, “GLP-1R/GCGR dual target agonist polypeptide for treatment of fatty liver diseases, hyperlipemia and arteriosclerosis” (Shenzhen Turier Biotech Co., Ltd., priority 2016, dated 2021).
*1 amine or outer side, *2 acyl side, *3 side chain or, on linkers, in order; H or OH if unused. Primed or numbered codes have the meaning given here. Where no end group is shown, it is not given here. Side-chain parts run from the residue outwards. [ ]: non-standard residue; d: D form. The star is where a group is joined. C18 diacid = O=C(O)CCCCCCCCCCCCCCCCC(=O)*; γGlu = O=C(O)[C@H](CCC(=O)[*:2])N[*:1]; Stearoyl = CCCCCCCCCCCCCCCCCC(=O)*; Palmitoyl = CCCCCCCCCCCCCCCC(=O)*; PEG2′ = not defined here; Aib = CC(C)(N)C(=O)O

Key:
[1] = tested on: CCl4-induced hepatic fibrosis mice; test: CCl4-induced hepatic fibrosis in mice; assay type: in vivo, C57 mice; settings: 500 μg/kg subcutaneous once every two days, 6 weeks
Description: 6-8-week-old C57 mice with body weight of 20-25 g at SPF level were provided by Guangdong Medical Laboratory Animal Center and tested by SPF level laboratory in Laboratory Animal Center of Guangdong Pharmaceutical University. C57 mice were divided into control group, hepatic fibrosis model group and treatment group, 8 mice for each group. A mouse was subject to intraperitoneal injection with 20% CCl4 (2 mL/kg, diluted with olive oil at ratio of 1:4) twice a week for continuous 6 weeks to form a stable hepatic fibrosis animal model. For the treatment group, one of subcutaneous injection compounds 2, 6 and 22 with 500 μg/kg of body weight was used respectively once every two days for continuous 6 weeks. Olive oil with same volume and same frequency was administered for the control group and stopped until the end of 6-week experiment. After the end of the experiment, the mice were subject to anesthesia to collect serum and liver specimens. The liver was fixed with 10% formalin and embedded with paraffin.

[2] = tested on: Hepatic stellate cell strain LX-2; test: In vitro inhibition of hepatic fibrosis: expression of LX-2 cell activation marker α-SMA (Western Blot, α-SMA/β-actin); assay type: cell-based, human; settings: LX-2 cells; for Relative expression of α-SMA (α-SMA/β-actin, %): 48 hours, negative control = 100%
Description: Hepatic stellate cell strain LX-2 was selected to study and observe the effect of different doses of test substances on the expression of LX-2 cell activation marker […]. Hepatic stellate cell LX-2 was laid on 35 mm cell culture plate, cultured with DMEM (high glucose)+10% FBS+1% double-antibody culture medium (Thermo Fisher), placed overnight when the cells grew to 70% convergence at 37° C. and under the condition of 5% CO2, and treated with the above compounds 1-37 (dissolved in PBS) for 48 hours the next day morning to extract cell protein, carry out Western Blot, and take β-actin as internal reference and analyze the expression quantities of α-SMA and β-actin by a gray level of Image J 1.50i. PBS with the same volume as that in experimental group was added in negative control. […] The integrating gray level of α-SMA/β-actin in the negative control group was 100% to analyze the in vitro inhibition activity of hepatic fibrosis of tested polypeptide.

[3] = tested on: high fat diet-induced hyperlipidemic mice; test: High fat diet-induced NAFLD and hyperlipemia in mice; assay type: in vivo, C57 mice; settings: 500 μg/kg subcutaneous once every two days, 12 weeks
Description: 6-8-week-old C57 mice with body weight of 20-25 g at SPF level were provided by Guangdong Medical Laboratory Animal Center and tested by SPF level laboratory in Laboratory Animal Center of Guangdong Pharmaceutical University. C57 mice were divided into control group, hepatic fibrosis model group and treatment group, 8 mice for each group. The mice were fed with high fat diet (HFD) for 12 weeks. For the treatment group, subcutaneous injection compounds 2 and 6 with 500 μg/kg of body weight were used once every two days for continuous 12 weeks. PBS with same volume and same frequency was administered for the control group. After the end of the experiment, the mice were subject to anesthesia to collect serum and liver specimens.

[4] = tested on: db/db diabetic obese mice; assay type: in vivo; settings: 10 μg/mouse subcutaneous once every two days, 18 days
Description: 12-week-old db/db diabetic obese mice were randomly grouped into 3 groups (12-hour fasting before grouping), 6 mice in each group. Mice in each group were injected subcutaneously at a dose of 10 μg/mouse, and mice in the blank group were injected subcutaneously with PBS. The volume for each group was 0.25 ml/mouse once every two days (at 48-hour interval) for 18 days. At the end of the experiment, blood was taken from the orbital venous plexus of each mouse to measure glycosylated hemoglobin (HbAlc), insulin (INS), triglyceride (TG) and total cholesterol (TC) levels in the serum of the mouse. The liver, pancreas, heart, lungs and spleen were taken for HE pathological staining at the same time. GraphPad Prismversion6 software was used for statistical analysis.

Substance: His-(D-Ser)-Gln-Gly-Thr-Phe-Thr-Ser-Asp-Tyr-Ser-Lys-Tyr-Leu-Asp-Lys(PEG2-PEG2-γGlu-CO(CH2)14CH3)-Arg-Arg-Ala-Gln-Asp-Phe-Val-Gln-Trp-Leu-Met-Asn-Thr-Gly-Gly-Pro-Ser-Ser-Gly-Ala-Pro-Pro-Pro-Ser-NH2 (H[dS]QGTFTSDYSKYLDK([PEG2′-PEG2′-γGlu-Palmitoyl])RRAQDFVQWLMNTGGPSSGAPPPS-NH2) [Compound 6]
- ALT level of serum [1]: obviously reduce
- CCl4-induced liver injury and fibrosis stage (HE, Sirius Red) [1]: obviously improved
- Inhibition of LX-2 cell activation marker α-SMA (in words, from Table 2) [2]: obviously reduce
- Relative expression of α-SMA (α-SMA/β-actin, %) ([2]; 1 μM): 41.19%
- Fatty liver complicated by hepatic fibrosis (Sirius red) [3]: effectively inhibit fatty liver complicated by hepatic fibrosis
- HFD-induced increase of body weight [3]: effectively inhibit
- Hepatic triglyceride (TG) content [3]: effectively reduce
- Liver lipid deposition (Oil Red O) [3]: effectively reduce
- Liver lipoid degeneration and non-alcoholic steatohepatitis (liver tissue biopsy) [3]: inhibit liver lipoid degeneration and non-alcoholic steatohepatitis
- Treatment effect on liver lipid deposition and hepatic TG compared with Liraglutide [3]: obviously better than Liraglutide
- Control of body weight, comparison between treatments ([3]; compared with liraglutide): most obviously
- Atrophy lesions of pancreatic islets (HE staining) [4]: significantly improve
- Inhibition of liver lipoid vacuolar degeneration and lipid inflammation, comparison between compounds [4]: better inhibition effect
- Liver lipoid vacuolar degeneration and lipid inflammation (HE staining) [4]: significantly inhibit
- Total cholesterol (TC) level in serum [4]: obviously inhibit
- Triglyceride (TG) level in serum [4]: obviously inhibit
- Glycosylated hemoglobin (HbAlc) level in serum ([4]; vs blank group): significantly reduced
- Insulin (INS) level in serum ([4]; vs blank group): up-regulated

Substance: His-(D-Ser)-Gln-Gly-Thr-Phe-Thr-Ser-Asp-Tyr-Ser-Lys-Tyr-Leu-Asp-Ser-Lys(PEG2-PEG2-γGlu-CO(CH2)16CH3)-Ala-Ala-His-Asp-Phe-Val-Glu-Trp-Leu-Leu-Asn-Gly-Gly-Pro-Ser-Ser-Gly-Ala-Pro-Pro-Pro-Ser-NH2 (H[dS]QGTFTSDYSKYLDSK([PEG2′-PEG2′-γGlu-Stearoyl])AAHDFVEWLLNGGPSSGAPPPS-NH2) [Compound 22]
- ALT level of serum [1]: obviously reduce
- CCl4-induced liver injury and fibrosis stage (HE, Sirius Red) [1]: obviously improved
- Relative expression of α-SMA (α-SMA/β-actin, %) ([2]; 1 μM): 90.56%

Substance: His-Aib-Gln-Gly-Thr-Phe-Thr-Ser-Asp-Lys(PEG2-PEG2-γGlu-CO(CH2)16CO2H)-Ser-Lys-Tyr-Leu-Asp-Aib-Arg-Arg-Ala-Gln-Asp-Phe-Val-Gln-Trp-Leu-Leu-Asp-Gly-Gly-Pro-Ser-Ser-Gly-Ala-Pro-Pro-Pro-Ser-NH2 (H[Aib]QGTFTSDK([PEG2′-PEG2′-γGlu-C18 diacid])SKYLD[Aib]RRAQDFVQWLLDGGPSSGAPPPS-NH2) [Compound 19]
- Inhibition of LX-2 cell activation marker α-SMA (in words, from Table 2) [2]: obviously reduce
- Effect on expression of α-SMA (in words) ([2]; 0.1 μM, 1 μM and 5 μM): reduce the expression of α-SMA under all concentrations
- Relative expression of α-SMA (α-SMA/β-actin, %) ([2]; 0.1 μM): 71.48%
- Relative expression of α-SMA (α-SMA/β-actin, %) ([2]; 1 μM): 43.46%
- Relative expression of α-SMA (α-SMA/β-actin, %) ([2]; 5 μM): 39.75%

Substance: His-Aib-Gln-Gly-Thr-Phe-Thr-Ser-Asp-Lys(PEG2-PEG2-γGlu-CO(CH2)16CO2H)-Ser-Lys-Tyr-Leu-Asp-Glu-Arg-Arg-Ala-Gln-Asp-Phe-Val-Gln-Trp-Leu-Leu-Asp-Gly-Gly-Pro-Ser-Ser-Gly-Ala-Pro-Pro-Pro-Ser-NH2 (H[Aib]QGTFTSDK([PEG2′-PEG2′-γGlu-C18 diacid])SKYLDERRAQDFVQWLLDGGPSSGAPPPS-NH2) [Compound 15]
- Relative expression of α-SMA (α-SMA/β-actin, %) ([2]; 1 μM): 77.29%
